Legend:
[1] = test system: brain channel cells of the SN Brain-Chip (dopaminergic neurons); experiment: Immunostaining of phospho-αSyn129 / αSyn accumulation in the brain channel; format: cell-based, human; conditions: 10 mM dose, compared to cells exposed to αSyn fibrils alone
Experimental: Thus, the capability of exogenously added fibrils was accessed for accumulation and processing cells of a SN Brain-Chip. Recombinant αSyn fibrils (4 μg/mL) was added in the culture medium of the brain channel under continuous flow, on Day 2 of the culture (FIG. 57A).
After three- and six-days upon-exposure to αSyn fibrils (D5 and D8 of the experiment, respectively), the exposed chips underwent immunostaining in order to determine the abundance of phosphoSer129-alph α-synuclein (phospho-αSyn129), a post-translational modification characteristic of pathogenic αSyn species^47,48.
Addition of exogenous alpha-synuclein to brain channel. Human recombinant αSyn monomers and pre-formed fibrils were purchased from Abcam (Monomers; ab218819, Fibrils; ab218819), and were diluted in DopaNeurons Media to a final concentration of 4 μg/mL. […]
For treatment, freshly prepared monomers and fibrils were used. […] Effluents, lysates, and staining were collected/fixed at day three- and day six post-exposure (D5 and D8 respectively), and were analyzed by a microplate reader, ELISA kits, and immunofluorescence microscopy.
Morphological analysis. […] Images were acquired with either an Olympus fluorescence microscope (IX83) or an inverted laser-scanning confocal microscope, e.g. Zeiss confocal microscope (AxiovertZ1 LSM880).

[2] = test system: BBB in the SN Brain-Chip; experiment: Permeability assays (apparent permeability, Papp) on the SN Brain-Chip; format: cell-based, human; conditions: αSyn fibril damaged SN Brain-Chips, trehalose added via brain channel on day 5, read after 72 hours (D8)
Experimental: Thus, BBB permeability assays were measured on the SN Brain-Chip after exposure to αSyn fibrils, as compared to exposure to αSyn monomers or PBS.
Permeability Assays, e.g., evaluate the establishment and integrity of the barrier. Apparent permeability (Papp) of the barrier was calculated by following a previously described method^81. […] After 24 hrs, effluent from both channels was sampled to determine the dye's concentration (amount) that had diffused through the membrane. […] Then, the following equation was used to calculate apparent paracellular permeability (Papp) based on a standard curve and using the following formula:

[3] = test system: endothelial cells of the SN Brain-Chip; experiment: Morphological analysis of tight junctions in endothelial cells in the αSyn fibril model; format: cell-based, human
Experimental: The junction protein expression of Claudin-5 was visualized by immunofluorescence staining with a Claudin-5 antibody and DAPI for cell nuclei. Scale bars: 50 μm.
Morphological analysis. Immunocytochemistry, including immunofluorescence microscopy, was conducted as previously described (Pediaditakis et al., 2020). Brief examples of methods are described herein. Brain-Chips were fixed with 4% paraformaldehyde in PBS for 10 min and then washed with PBS. Cells were blocked on the Brain-Chip in phosphate-buffered saline (PBS) containing 10% donkey serum (Sigma) at 4° C. overnight. Immunostaining was performed after permeabilization in PBS with 0.1% Saponin and blocking for 30 min in 10% donkey serum in PBS with 0.1% Saponin. Immunostaining was performed with specific primary antibodies (anti-TH, anti-GFAP, anti-NG2, anti-TMEM119, anti-pSer129-αSyn, anti-Cleaved Caspase-3, anti-CD68; Abcam), (anti-MAP2, and anti-CD31; Thermo Fisher Scientific), (anti-Claudin-1, anti-Claudin-5, anti-Occludin, anti-ZO-1; Invitrogen), in a 1:100 dilution in 10% donkey serum in PBS with 0.1% Saponin and incubated overnight on the Brain-Chip at 4° C. […] Images were acquired with either an Olympus fluorescence microscope (IX83) or an inverted laser-scanning confocal microscope, e.g. Zeiss confocal microscope (AxiovertZ1 LSM880).

[4] = test system: HMC3 cells; conditions: 10 ng/ml, 24 h; cited from earlier work
[5] = test system: neurons, astrocytes and microglia in the brain channel of the Brain-Chip; format: cell-based, human
Experimental: Neuroinflammation incorporates a broad spectrum of complex cellular responses that often contribute to the pathogenesis and progression of various neurological disorders. To study the effects of neuroinflammatory specific signals on the Brain-Chip, TNF-α was perfused within the brain channel at a pathophysiological concentration of 100 ng/mL (FIG. 36A and FIG. 35). […] In addition, excessive TNF-α levels have been reported to have an inhibitory effect on glutamate transporters, resulting in increased glutamate concentration in the CNS parenchyma, linking the central inflammatory response to glutamate-mediated toxicity. To test this hypothesis in this system, secreted glutamate levels were measured by enzyme-linked immunosorbent assay (ELISA).
In one embodiment, a model of neuroinflammation was provided by treating cells as a neurovascular unit (brain side) with TNF-alpha added to the brain channel. TNFα, was previously reported to mediate neuroinflammation and detected in patients with neurological. disorders. On days 0 and 1, cells were seeded on the top and bottom channel of one embodiment of a Brain-Chip, respectively. The Brain-Chip is then allowed to mature under flow conditions for 4 more days and on day 5, cells on the brain side are treated with TNFα, for 48 hrs. During exposure, effluent is collected, and on the last day of the experiment, cells in chips may be imaged, stained for immunohistochemistry and imaged. In some embodiments, cells are lysed for transcriptomic analysis. Thus, modeling neuroinflammation comprises Brain chips and methods of use where TNF-a and/or other inflammatory compounds are added to the Brain channel. In some embodiments, such neuroinflamed brain chips are used in methods for developing treatments in addition for testing compounds for efficacy and safety.
(§1) TNF-α treatment. To mimic the inflammatory condition, cells were treated on either brain or vascular channel with TNF-α (Tumor Necrosis Factor-α, R&D Systems; 210-TA). The treatment was initiated after the formation of a confluent monolayer at ˜5 days in culture. Cells were further incubated in a culturing medium, including TNF-α (100 ng/ml) up to 48 hours.
Morphological analysis. Immunocytochemistry, including immunofluorescence microscopy, was conducted as previously described (Pediaditakis et al., 2020). Brief examples of methods are described herein. Brain-Chips were fixed with 4% paraformaldehyde in PBS for 10 min and then washed with PBS. Cells were blocked on the Brain-Chip in phosphate-buffered saline (PBS) containing 10% donkey serum (Sigma) at 4° C. overnight. […] Images were acquired with either an Olympus fluorescence microscope (IX83) or an inverted laser-scanning confocal microscope, e.g. Zeiss confocal microscope (AxiovertZ1 LSM880).

[6] = test system: Brain-Chip brain channel cells; experiment: Secreted cytokines (MSD V-PLEX) and glutamate in brain channel media of the TNF-α treated Brain-Chip; format: cell-based, human
Experimental: To determine whether the level of other inflammatory cytokines increases in this TNF-α model, levels of IFNγ, interleukin-1β (IL-1β) and IL-6, were measured following two days of exposure within the brain channel media. These cytokines are associated with the increase of BBB permeability.
In one embodiment, chips were seeded with human iPS-derived glutamatergic and GABAergic neurons (NeuCyte) at a density of 2×10^6 cells/mL and 0.75×10^6 cells/mL respectively, co-cultured with human primary microglia (ATCC; CRL3304) at a density of 1×10^5 cells/mL, human primary astrocytes (NeuCyte), and primary pericytes (Sciencell; 1200) at a density of 1×10^5 cells/mL, using “seeding medium” (NeuCyte), and incubated overnight. The next day, human iPS-derived Brain Microvascular Endothelial cells were seeded in the vascular channel at a density of 14-16×10^6 cells/mL using human serum-free endothelial cell medium supplemented with 5% human serum from platelet-poor human plasma (Sigma) and allowed to attach to the membrane overnight. Chips were then connected to the culture module. At this time, the medium supplying the brain channel was switched to maintenance medium (Neucyte), and the serum of the vascular medium was lowered to 2%. Chips were maintained under constant perfusion at 60 μL/hr through all chips' brain and vascular channels until day 7. Two additional commercial endothelial cell sources were used in experiments. Human primary endothelial cells (Cell Systems) and hCMEC/D3 (Millipore) were cultured in media according to the manufacturer's instructions.
as §1
ELISA analysis. The levels of IFNγ, IL-1β, and IL-6 were measured by M.S.D. 96-well plate Human Pro-Inflammatory V-PLEX Human Pro-Inflammatory Assay kits. The secreted levels of Glutamate were measured by Glutamate Assay Kit (Fluorometric) (Abcam; ab138883).

[7] = test system: Blood-Brain Barrier of the Brain-Chip; experiment: BBB permeability to 3 kDa dextran in the TNF-α treated Brain-Chip; format: cell-based, human
Experimental: To directly measure how BBB permeability changed over time in response to TNFα, the transport of 3-kDa Cascade Blue dextran was evaluated across the BBB. Fluorescent dextran molecule was introduced in the vascular channel. After 24 hrs and 48 hrs of exposure, the amount of fluorescent dextran collected in the Brain-side was measured.
as §1
Permeability Assays, e.g., evaluate the establishment and integrity of the barrier. Apparent permeability (Papp) of the barrier was calculated by following a previously described method^81. Briefly, 100 μg mL^−1 (0.1 mg/mL) of dextran (3 kDa, e.g. Cascade Blue) and/or 20 μg mL^−1 of Lucifer (0.5 kDa) tracers were dosed (flowed) through the vascular channels for 24 hrs. After 24 hrs, effluent from both channels was sampled to determine the dye's concentration (amount) that had diffused through the membrane. Concentration of the dextran and Lucifer tracers in the outlet samples from both vascular and brain channels was determined by using BioTek (BioTek Instruments, Inc., Winooski, Vt., USA). […]
Here, SA is the surface area of sections of the channels that overlap (0.17 cm^2), QR and QD are the fluid flow rates in the dosing and receiving channels respectively, in units of cm^3/s, CR,0 and CD,0 are the recovered concentrations in the dosing and receiving channels respectively, in any consistent units. IgG permeability was also evaluated after dosing the vascular channel and measuring the IgG content on the brain channel. Detection and quantitation of serum immunoglobulin G (IgG1; Abcam) was performed using the ELISA kit (Abcam), after 24 hrs of perfusion.

[8] = test system: iPS-derived brain endothelial cells; experiment: Immunofluorescence of ZO-1 and ICAM-1 in the vascular channel of the TNF-α treated Brain-Chip; format: cell-based, human
Experimental: BBB permeability assays were done on the Brain-Chip upon exposure to TNF-α compared to the untreated group.
Morphological analysis. Immunocytochemistry, including immunofluorescence microscopy, was conducted as previously described (Pediaditakis et al., 2020). Brief examples of methods are described herein. Brain-Chips were fixed with 4% paraformaldehyde in PBS for 10 min and then washed with PBS. Cells were blocked on the Brain-Chip in phosphate-buffered saline (PBS) containing 10% donkey serum (Sigma) at 4° C. overnight. Immunostaining was performed after permeabilization in PBS with 0.1% Saponin and blocking for 30 min in 10% donkey serum in PBS with 0.1% Saponin. Immunostaining was performed with specific primary antibodies (anti-TH, anti-GFAP, anti-NG2, anti-TMEM119, anti-pSer129-αSyn, anti-Cleaved Caspase-3, anti-CD68; Abcam), (anti-MAP2, and anti-CD31; Thermo Fisher Scientific), (anti-Claudin-1, anti-Claudin-5, anti-Occludin, anti-ZO-1; Invitrogen), in a 1:100 dilution in 10% donkey serum in PBS with 0.1% Saponin and incubated overnight on the Brain-Chip at 4° C. Additional primary antibodies were MAP2 (Thermo Fisher Scientific; MA512826), VGLUT1 (Thermo Fisher Scientific; 48-2400), GFAP (Abcam; ab53554), NG2 (Abcam; ab83178), CD68 (Abcam; ab213363), ICAM-1 (R&D Systems; BBA3), ZO-1 (Thermo Fisher Scientific; 402200), GLUT1 (Thermo Fisher Scientific; SPM498). Fluorescently conjugated secondary antibodies with Alexa Fluor-488, Alexa Fluor-568, or Alexa Fluor-647 (Abcam) were then used when the primary antibodies are not conjugated, incubated in the dark for 2 hr at room temperature. Cells were then counterstained with DAPI nuclear stain. Images were acquired with either an Olympus fluorescence microscope (IX83) or an inverted laser-scanning confocal microscope, e.g. Zeiss confocal microscope (AxiovertZ1 LSM880).

[9] = TNF-α 100 ng/mL perfused within the brain channel, two days, vs untreated
[10] = TNF-α 100 ng/mL in brain channel (neuroinflammation), two days, vs untreated
[11] = TNF-α perfused within the vascular channel (systemic inflammation), two days, vs untreated
[12] = TNF-α 100 ng/mL within the vascular channel, vs control

OC[C@H]1O[C@H](O[C@H]2O[C@H](CO)[C@@H](O)[C@H](O)[C@H]2O)[C@H](O)[C@@H](O)[C@@H]1O [trehalose, O-α,-d-glucopyranosyl-[1→1]-α-d-glucopyranoside]
accumulation of αSyn within the cells of the brain channel [1]: diminished the accumulation of αSyn
BBB permeability (3 kDa dextran) [2]: significantly decreased BBB permeability
tight junctions (ZO-1, Claudin-5) ([3]; αSyn fibril damaged SN Brain-Chips, trehalose treated, D8): rescuing damaged tight junctions
junction protein expression of ZO-1 ([3]; αSyn fibril model with or without trehalose treatment): restoration of junction protein expression of ZO-1

IFN-gamma: cytokine used to activate HMC3 microglia cells
markers of activated microglia MHCII, CD68 and CD11b [4]: upregulated

TNF-α
microglia activation (phenotypic changes, phagocytosis of latex beads) ([5]; TNF-alpha 100 ng/ml): activates microglia as shown by phenotypic changes and induction of phagocytosis
proportion of the GFAP-positive cells [5, 9]: significantly increased
proportion of the MAP2-positive cells [5, 9]: decreased
activated microglia (CD68 expression) ([5]; TNF-α 100 ng/mL, brain channel, two days of exposure): activated microglia were also observed
IL-6 production, Brain chips with and without microglial cells ([6]; TNF-alpha, 24 and 48 hours): induced significant IL-6 production in both embodiments
IL-6 secreted, Brain chips including microglial cells over those without ([6]; TNF-alpha, after both 24 and 48 hours): unexpected significant increase
secreted glutamate levels (ELISA), media of the brain channel ([6]; TNF-α 100 ng/mL brain channel, two days, vs untreated): significantly higher
level of IFNγ in brain channel media [6, 10]: significantly higher
level of IL-1β in brain channel media [6, 10]: significantly higher
level of IL-6 in brain channel media [6, 10]: significantly higher
level of IL-6 in brain channel media, absence of microglia ([6]; TNF-α exposure, Brain-Chip without microglia): not stigmatically changed
level of IFNγ in brain channel media [6, 11]: significantly higher levels
level of IL-1β in brain channel media [6, 11]: significantly higher levels
level of IL-6 in brain channel media [6, 11]: significantly higher levels
permeability to 3 kDa dextran ([7]; TNF-α 100 ng/mL in brain channel, 24 and 48 hrs, time dependent): significantly increased permeability
permeability to 3 kDa dextran ([7]; TNF-α 100 ng/mL perfused within the vascular channel (systemic inflammation)): significantly increased permeability
transport through the BBB (apparent permeability) vs vehicle control ([7]; TNFα 100 ng/mL on the brain side, 24 hrs and 48 hrs): significantly increased by three times over the control
expression of BBB tight junction protein ZO-1 [8, 12]: significantly attenuated
expression of ICAM-1 [8, 12]: increased
ZO-1 expression ([8]; TNF-α in brain channel, 48 hrs): loss of ZO-1
intercellular adhesion molecule 1 (ICAM-1) expression ([8]; TNF-α in brain channel, 48 hrs): excessive increase
